Measured values reported in patent publication US10457672B2, “γ-diketones as Wnt/β-catenin signaling pathway activators” (Samumed, LLC, priority 2013, dated 2019).

test system: Wnt/β-catenin signaling pathway (Wnt-responsive SP5 promoter luciferase reporter in SW480 cells); test: Wnt reporter (SP5 promoter-firefly luciferase) activation assay in SW480 cells; type: cell-based; settings: Homo sapiens; SW480 colon cancer cells with SP5 promoter luciferase reporter; 24 h after compound addition; normalized to DMSO; concentration at half maximal activation
Description: Compounds that enhance the Wnt activity, or Activators, were assayed as follows. Reporter cell lines were generated by stably transducing cells of colon cancer cell lines (with a lentiviral construct that included a Wnt-responsive promoter driving expression of the firefly luciferase gene).
Lentiviral constructs were made in which the SP5 promoter, a promoter having eight TCF/LEF binding sites derived from the SP5 promoter, was linked upstream of the firefly luciferase gene. The lentiviral constructs also included a hygromycin resistance gene as a selectable marker. The SP5 promoter construct was used to transduce SW480 cells, a colon cancer cell line having a mutated APC gene that generates a truncated APC protein, leading to de-regulated accumulation of β-catenin.
Cultured SW480 cells bearing a reporter construct were distributed at approximately 10,000 cells per well into 384- or 96-well multiwell plates. Compounds from a small molecule compound library were then added to the wells in half-log dilutions using a maximum concentration of three or ten micromolar. A series of control wells for each cell type received only buffer and compound solvent DMSO. Twenty-four hours after the addition of compound, reporter activity for luciferase was assayed, for example, by addition of the BrightGlo luminescence reagent (Promega) and the Victor3 plate reader (Perkin Elmer). Readings were normalized to DMSO only treated cells, and any activities above DMSO were considered activation. Compounds were considered activators if reporter activities were 2× fold or greater than DMSO. EC50 is the concentration at half maximal activation.

SMILES | EC50 [nM]
O=C(CCC(=O)c1ccc2c(c1)CCCO2)c1cccc(C(F)(F)F)c1 [Compound 69, 1-(Chroman-6-yl)-4-(3-(trifluoromethyl)phenyl)butane-1,4-dione] | > 10000
O=C(CCC(=O)c1ccccc1F)c1ccc2[nH]ccc2c1 [Compound 252, 1-(2-Fluorophenyl)-4-(1H-indol-5-yl)butane-1,4-dione] | 1
O=C(CCC(=O)c1ccc2[nH]ncc2c1)c1ccccc1 [Compound 513, 1-(1H-Indazol-5-yl)-4-phenylbutane-1,4-dione] | 39
O=C(CCC(=O)c1ccc2c(c1)OCCO2)c1cccc(F)c1 [Compound 11, 1-(2,3-Dihydrobenzo[b][1,4]dioxin-6-yl)-4-(3-fluorophenyl)butane-1,4-dione] | 13
O=C(CCC(=O)c1ccco1)c1ccc2c(c1)OCO2 [Compound 375, 1-(Benzo[d][1,3]dioxol-5-yl)-4-(furan-2-yl)butane-1,4-dione] | 71
O=C(CCC(=O)c1ccccn1)c1ccc2[nH]ccc2c1 [Compound 258, 1-(1H-Indol-5-yl)-4-(pyridin-2-yl)butane-1,4-dione] | 16
Cc1ccccc1C(=O)CCC(=O)c1c[nH]c2ccccc12 [Compound 518, 1-(1H-Indol-3-yl)-4-(o-tolyl)butane-1,4-dione] | 646
O=C(CCC(=O)c1ccccc1C(F)(F)F)c1ccc2ocnc2c1 [Compound 288, 1-(Benzo[d]oxazol-5-yl)-4-(2-(trifluoromethyl)phenyl)butane-1,4-dione] | > 10000
O=C(CCC(=O)c1ncccc1C(F)(F)F)c1ccc2c(c1)OCCO2 [Compound 570, 1-(2,3-Dihydrobenzo[b][1,4]dioxin-6-yl)-4-(3-(trifluoromethyl)pyridin-2-yl)butane-1,4-dione] | 26
Cc1cccc(C(=O)CCC(=O)c2ccc3occc3c2)c1 [Compound 456, 1-(Benzofuran-5-yl)-4-(m-tolyl)butane-1,4-dione] | 673
O=C(CCC(=O)c1ccc2ocnc2c1)c1cccc(F)c1 [Compound 292, 1-(Benzo[d]oxazol-5-yl)-4-(3-fluorophenyl)butane-1,4-dione] | 595
COc1ccccc1C(=O)CCC(=O)c1ccc2[nH]ccc2c1 [Compound 255, 1-(1H-Indol-5-yl)-4-(2-methoxyphenyl)butane-1,4-dione] | 17
O=C(CCC(=O)c1ccccc1C(F)(F)F)c1ccc2c(c1)OCO2 [Compound 210, 1-(Benzo[d][1,3]dioxol-5-yl)-4-(2-(trifluoromethyl)phenyl)butane-1,4-dione] | 2
COc1cccc(C(=O)CCC(=O)c2ccc3[nH]cnc3c2)c1 [Compound 269, 1-(1H-Benzo[d]imidazol-5-yl)-4-(3-methoxyphenyl)butane-1,4-dione] | > 10000
Cc1ccccc1C(=O)CCC(=O)c1ccc2occc2c1 [Compound 455, 1-(Benzofuran-5-yl)-4-(o-tolyl)butane-1,4-dione] | 32
COc1cccc(C(=O)CCC(=O)c2c[nH]c3ccccc23)c1 [Compound 320, 1-(1H-Indol-3-yl)-4-(3-methoxyphenyl)butane-1,4-dione] | > 10000
O=C(CCC(=O)c1ccccc1F)c1ccccn1 [Compound 538, 1-(2-Fluorophenyl)-4-(pyridin-2-yl)butane-1,4-dione] | 63
O=C(CCC(=O)c1cccc2c1OCCO2)c1cccc(F)c1 [Compound 240, 1-(2,3-Dihydrobenzo[b][1,4]dioxin-5-yl)-4-(3-fluorophenyl)butane-1,4-dione] | 669
Cc1ccccc1C(=O)CCC(=O)c1ccc2c(c1)OCCO2 [Compound 342, 1-(2,3-Dihydrobenzo[b][1,4]dioxin-6-yl)-4-(o-tolyl)butane-1,4-dione] | 9
O=C(CCC(=O)c1ccccc1C(F)(F)F)c1ccc2c(c1)SCCO2 [Compound 16, 1-(2,3-Dihydrobenzo[b][1,4]oxathiin-6-yl)-4-(2-(trifluoromethyl)phenyl)butane-1,4-dione] | 7
O=C(CCC(=O)c1ccccc1F)c1ccc2c(c1)OCO2 [Compound 213, 1-(Benzo[d][1,3]dioxol-5-yl)-4-(2-fluorophenyl)butane-1,4-dione] | 18
COc1ccc(C(=O)CCC(=O)c2ccncc2)cc1OC [Compound 209, 1-(3,4-Dimethoxyphenyl)-4-(pyridin-4-yl)butane-1,4-dione] | > 10000
COc1ccc(C(=O)CCC(=O)c2n[nH]c3ccccc23)cc1 [Compound 334, 1-(1H-Indazol-3-yl)-4-(4-methoxyphenyl)butane-1,4-dione] | > 10000
O=C(CCC(=O)c1ccc2c(c1)OCCO2)c1ccncc1 [Compound 15, 1-(2,3-Dihydrobenzo[b][1,4]dioxin-6-yl)-4-(pyridin-4-yl)butane-1,4-dione] | 90

SMILES | EC50 [nM]
O=C(CCC(=O)c1ccccc1C(F)(F)F)c1ccc2[nH]ncc2c1 [Compound 498, 1-(1H-Indazol-5-yl)-4-(2-(trifluoromethyl)phenyl)butane-1,4-dione] | 12
O=C(CCC(=O)c1ccccc1F)c1ccc2c(c1)CCCO2 [Compound 71, 1-(Chroman-6-yl)-4-(2-fluorophenyl)butane-1,4-dione] | 2.5
COc1ccc(C(=O)CCC(=O)c2ccncn2)cc1OC [Compound 432, 1-(3,4-Dimethoxyphenyl)-4-(pyrimidin-4-yl)butane-1,4-dione] | 4800
O=C(CCC(=O)c1ccc2c(c1)SCCO2)c1ccc(F)cc1 [Compound 21, 1-(2,3-Dihydrobenzo[b][1,4]oxathiin-6-yl)-4-(4-fluorophenyl)butane-1,4-dione] | 31
O=C(CCC(=O)c1cccc2c1OCCO2)c1ccccc1 [Compound 248, 1-(2,3-Dihydrobenzo[b][1,4]dioxin-5-yl)-4-phenylbutane-1,4-dione] | > 10000
COc1ccc(C(=O)CCC(=O)c2ccc(C)cc2)cc1OC [Compound 426, 1-(3,4-Dimethoxyphenyl)-4-(p-tolyl)butane-1,4-dione] | 8800
COc1ccccc1C(=O)CCC(=O)c1ccc2occc2c1 [Compound 281, 1-(Benzofuran-5-yl)-4-(2-methoxyphenyl)butane-1,4-dione] | 61
O=C(CCC(=O)c1ccco1)c1ccc2c(c1)OC(F)(F)O2 [Compound 385, 1-(2,2-Difluorobenzo[d][1,3]dioxol-5-yl)-4-(furan-2-yl)butane-1,4-dione] | 165
O=C(CCC(=O)c1ncccn1)c1ccc2c(c1)OCCO2 [Compound 339, 1-(2,3-Dihydrobenzo[b][1,4]dioxin-6-yl)-4-(pyrimidin-2-yl)butane-1,4-dione] | 9
COc1ccccc1C(=O)CCC(=O)c1ccc2ocnc2c1 [Compound 294, 1-(Benzo[d]oxazol-5-yl)-4-(2-methoxyphenyl)butane-1,4-dione] | 1720
COc1ccccc1C(=O)CCC(=O)c1ccc2c(c1)OCCC2 [Compound 61, 1-(Chroman-7-yl)-4-(2-methoxyphenyl)butane-1,4-dione] | 25
O=C(CCC(=O)c1ccc2c(c1)CCCO2)c1ccccc1 [Compound 80, 1-(Chroman-6-yl)-4-phenylbutane-1,4-dione] | 10
COc1ccc(C(=O)CCC(=O)c2ccc3c(c2)CCCO3)cc1 [Compound 76, 1-(Chroman-6-yl)-4-(4-methoxyphenyl)butane-1,4-dione] | > 10000
O=C(CCC(=O)c1ccc2[nH]ccc2c1)c1ccccc1 [Compound 261, 1-(1H-indol-5-yl)-4-phenylbutane-1,4-dione] | 42
O=C(CCC(=O)c1ccccc1C(F)(F)F)c1ccc2[nH]ccc2c1 [Compound 249, 1-(1H-Indol-5-yl)-4-(2-(trifluoromethyl)phenyl)butane-1,4-dione] | 4
O=C(CCC(=O)c1n[nH]c2ccccc12)c1ccccc1 [Compound 338, 1-(1H-Indazol-3-yl)-4-phenylbutane-1,4-dione] | 64
O=C(CCC(=O)c1cccs1)c1ccc2c(c1)CCCO2 [Compound 364, 1-(Chroman-6-yl)-4-(thiophen-2-yl)butane-1,4-dione] | 13
Cc1ccccc1C(=O)CCC(=O)c1ccccn1 [Compound 544, 1-(Pyridin-2-yl)-4-(o-tolyl)butane-1,4-dione] | 900
Cc1cccc(C(=O)CCC(=O)c2ccc3c(c2)OCCO3)c1 [Compound 343, 1-(2,3-Dihydrobenzo[b][1,4]dioxin-6-yl)-4-(m-tolyl)butane-1,4-dione] | 351
COc1ccc(C(=O)CCC(=O)c2ccccn2)cc1OC [Compound 207, 1-(3,4-Dimethoxyphenyl)-4-(pyridin-2-yl)butane-1,4-dione] | > 10000
O=C(CCC(=O)c1n[nH]c2ccccc12)c1ccccc1F [Compound 329, 1-(2-Fluorophenyl)-4-(1H-indazol-3-yl)butane-1,4-dione] | 89
O=C(CCC(=O)c1ccco1)c1ccccn1 [Compound 554, 1-(Furan-2-yl)-4-(pyridin-2-yl)butane-1,4-dione] | > 10000
O=C(CCC(=O)c1ccc2c(c1)OCCO2)c1cccnc1 [Compound 14, 1-(2,3-dihydrobenzo[b][1,4]dioxin-6-yl)-4-(pyridin-3-yl)butane-1,4-dione] | 306
